Columns and labels:
[1] = system: hamster cheek pouch anerioles; assay: vasoconstriction of hamster cheek pouch arterioles
Excerpt: The constrictor response has classically been attributed to A1 adenosine receptor stimulation or interactions with the renin-angiotensin system. […] In the present invention, specific blockade of the A3 subtype of the adenosine receptor by a meta-substitutedphenylxanthine is effective to block the vasoconstrictive response induced through adenosine activation of this receptor subtype. The use of a meta-substituted phenylxanthine specific inhibitor of the A3 adenosine receptor subtype is effective to inhibit effects induced by adenosine mediated mast cell degranulation, and that disease states including but not limited to myocardial ischemia (Ito et al., Am. J. Physiol. 264 (Heart Circ. Physiol. 33):H I 346-H 1354, 1993), mastcell-dependent inflammation (Raud, J., Acta. Physiol. Scand. 135 (Suppl '578):I-58, 1989), brain arteriole diameter constriction (Rosenblum, W. I., Brain Res. 49:75-82, 1973), and the release of allergic mediators (Ramkumar et al., J. Biol. Chem. 268:16887-16890, 1993), are all amenable to prevention and treatment by contacting A3 receptor bearing mast cells with an amount of a meta-substituted phenylxanthine selective A3 inhibitor effective to prevent mast cell degranulation.

[2] = system: A3 adenosine receptor; assay: mast cell degranulation in an animal model; type: in vivo
Excerpt: (§1) The release of enzymes, bioactive amines and arachidonic acid metabolites following mast cell activation causes vasoconstriction, edema, leukocyte accumulation, and ultimately, tissue damage. Mast cell degranulation is a component of myocardian reperfusion injury, hypersensitivity reactions (asthma, allergic rhinitis, and urticaria), ischemic bowel disease, autoimmune inflammation, and atopic dermatitis. Selective A3 adenosine receptor antagonists can be used to treat or prevent these diseases and pathologic effects that result from mast cell degranulation.
as §1, with “of: myocardial” for “of myocardian”, “inflammations, 20” for “inflammation,”, “The present invention relates to the use of highly specific meta-substituted 8-phenylxanthine” for “Selective”, “antagonists” for “antagonists can be used”

[3] = system: asthmatics; details: not nonasthmatics; cited from earlier work
[4] = target: T1, human A3 adenosine receptor (Homo sapiens, UniProt P0DMS8); assay: inhibition of forskolin-stimulated cAMP accumulation in stably transfected CHO cells expressing the human A3 receptor; type: cell-based
T1 construct: clone HS-21a contained the complete open reading frame corresponding to the human homolog of the rat A3 adenosine receptor; expressed in transfected cells; host or cells: CHO cells stably transfected with HS-21a cDNA
T1 sequence (P0DMS8 1-318): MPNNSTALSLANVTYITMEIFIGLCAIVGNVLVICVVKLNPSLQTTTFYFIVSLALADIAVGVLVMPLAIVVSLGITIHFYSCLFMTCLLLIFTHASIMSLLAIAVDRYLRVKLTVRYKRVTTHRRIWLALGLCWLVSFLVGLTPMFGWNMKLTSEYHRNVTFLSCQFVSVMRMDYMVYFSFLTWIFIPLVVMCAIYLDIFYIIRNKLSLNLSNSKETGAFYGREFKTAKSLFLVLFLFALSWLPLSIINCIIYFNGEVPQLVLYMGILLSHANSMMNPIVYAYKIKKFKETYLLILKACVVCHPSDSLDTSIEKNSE
Description: The human A3 adenosine receptor from a striatal cDNA library can be cloned using a probe derived from the homologous rat sequence.
cAMP Accumulation in Stable CHO Cell Lines
The changes in cAMP accumulation can alternatively be measured in stably transfected CHO cells expressing the human adenosine receptor subtypes. CHO cells are washed twice in phosphate buffered saline (PBS) and detached in 0.2% EDTA in PBS. The cells are pelleted at 800 rpm for 10 min and resuspended in KRH buffer (140 mM NaCl/5 mM KCl/2 mM CaCl2 /1.2 mM MgSO4 /1.2 mM KH2 PO4 /6 mM glucose/25 mM Hepes buffer, pH 7.4). The cells are washed once in KRH buffer and resuspended at 10^7 cells/mL. The cell suspension (100 μl) is mixed with 100 μl of KRH buffer containing 200 uM Ro 20-1724 and incubated at 37° C. for 10 minutes. Adenosine (10 uM) was added in 200 μl KRH buffer containing 200 uM Ro 20-1724 and incubated at 37° C. for 20 minutes. After the incubation, 400 μl of 0.5 mM NaOAc (pH 6.2) was added and the sample was boiled for 20 minutes. The supernatant was recovered by centrifugation for 15 minutes and stored at -70° C. cAMP levels were determined by radiommunoassay (RIANEN kit, DuPont/NEN) using the to acetylation protocol. The effect of antagonists on cAMP accumulation are measured by preincubation for 20 minutes before adding adenosine.

[5] = system: mast cells isolated from rat peritoneum; details: cited from earlier work
[6] = system: sheep A3 adenosine receptor; details: cited from earlier work
[7] = target: T1, human A3 adenosine receptor; assay: 125I-ABA binding to membranes of stably transfected CHO cells expressing the human A3 adenosine receptor (HS-21a); details: 1 mM nonradioactive I-ABA
[8] = system: non-transfected CHO cells; assay: 125I-ABA binding to membranes from non-transfected CHO cells
Description: Membranes were prepared from stable CHO cell lines in 10 mM Hepes, pH 7.4 containing 0.1 mM benzamidine and 0.1 mM PMSF as described (Mahan, L. C. et al., (1991) Mol. Pharinacol. 40, 1-7). Pellets were resuspended in 5 mM Hepes, pH 7.4/5 mM MgCl2 /0.1 mM benzarnidine/0.1 mM PMSF at a protein concentration of 1-2 mg/mL and were incubated with adenosine deaminase (Boehringer Mannheim), 2 U/mL at 37° C. for 20 minutes. Saturation binding of ^125 I-ABA was carried out on 50 μg of membranes for 120 minutes at 25° C. in a total volume of 100 μl. […] Nonspecific binding was measured in the presence of 1 uM I-ABA. The KD and Bmax values were calculated by the EBDA program (McPherson, G. A. (1983) Computer Programs for Biomedicine 17, 107-114). Competition binding of agonists and antagonists was determined with ^125 I-ABA (0.17-2.0 nM, 2000 Ci/mmol). […] Binding data were analyzed and competition curves were constructed by use of the nonlinear regression curve fitting program Graph PAD InPlot, Version 3.0 (Graph Pad Software, San Diego). Ki values were calculated using the Cheng-Prusoff derivation (Cheng, Y. C. and Prusoff, H. R. (1973) Biochem. Pharmacol. 22, 3099-3108.).
The binding properties of the receptor encoded b HS-21a were evaluated on membranes prepared from CHO cells stably expressing the HS-21a cDNA. […]

[9] = target: T1, human A3 adenosine receptor; assay: 125I-ABA binding to membranes of stably transfected CHO cells expressing the human A3 adenosine receptor (HS-21a)
Description: Membranes were prepared from transiently transfected COS7 cells […] after transfection or from G418-selected stably transfected CHO or HEK 293 cells. Cells were harvested in 1 mM EDTA in phosphate buffered saline and centrifuged at 2000×g for 10 minutes. The cell pellet was washed once with phosphate buffered saline. The cell pellet was resuspended in 2 mL of 5 mM Tris, pH 7.6/5mM MgCl2. Membranes were prepared from the cells by freeze-thaw lysis in which the suspension was frozen in a dry ice/ethanol bath and thawed at 25° C. twice. The suspension was homogenized after adding an additional 2 mL of 5 mM Tris, pH 7.6/5 mM MgCl2, in a glass dounce homogenizer with 20 strokes. The membranes were pelleted at 40,000×g at 4° C. for 20 minutes. The membrane pellet was resuspended at a protein concentration of 1-2 mg/mL in binding assay buffer, 50 mM Tris, pH 7.6/10 mM MgCl2. Protein concentration was determined by the method of Bradford ((1976) Anal. Biochem. 72: 248-250). […] Saturation binding of [^125 I]-N^6 -aminiobenizyladenosine (125I-ABA) or [^125 I]-N^6 -2-(4-amino-3-iodophenyl)ethyladenosine (APNEA) was performed on membranes prepared from pSVLA3 transfected COS7 cells. Membranes (100 μg) were incubated in the presence of 0.2 U/mL adenosine deaminase with increasing concentrations of ^125 I-ABA in the range of 0.1-30 nM for 120 minutes at 25° C. in a total volume of 500 μl. The binding assay was terminated by rapid filtration and three washes with ice-cold 50 mM Tris, pH 7.6/10 mM MgCl2 on a Skatron cell harvester equipped with a receptor binding flitermat (SKATRON INSTRUMENTS, INC). Non-specific binding was determined on non-transfected cells. Bound radioactivity was measured by scintillation counting in Ready Safe Scintillation Cocktail (BECKMAN).
The 1.7 kb HS-21a cDNA (A3) was subcloned as a SalI-BamHl fragment into the expression vector pCMV5 (Mumby, S. M., Heukeroth, R. O., Gordon, J. I. and Gilman, A. G. (1990) Proc. Natl. Acad. Sci. USA 87, 728-732.) creating the vector pCMV5-A3. CHO or HEK 293 cells stably expressing the human HS-21 a cDNA were prepared by co-transfection of 15 μg pCMV5-A3 and 1 μg pWLneo (Stratagene) using the calcium phosphate method. Stable cell lines were also generated using EBV based mammalian expression vectors, pREP (INVITROGEN). Neomycin resistant colonies were selected in 1 mg/mL G418 (GIBCO). Stable colonies were screened for expression of HS-21a by ^125 I-ABA binding.
Membranes were prepared from stable CHO cell lines in 10 mM Hepes, pH 7.4 containing 0.1 mM benzamidine and 0.1 mM PMSF as described (Mahan, L. C. et al., (1991) Mol. Pharinacol. 40, 1-7). Pellets were resuspended in 5 mM Hepes, pH 7.4/5 mM MgCl2 /0.1 mM benzarnidine/0.1 mM PMSF at a protein concentration of 1-2 mg/mL and were incubated with adenosine deaminase (Boehringer Mannheim), 2 U/mL at 37° C. for 20 minutes. Saturation binding of ^125 I-ABA was carried out on 50 μg of membranes for 120 minutes at 25° C. in a total volume of 100 μl. The assay was terminated by rapid filtration and three washes with ice-cold binding buffer on a Skatron harvester equipped with a receptor binding filtermat (Skatron Instruments, Inc.). The specific activity of ^125 I-ABA, initially 2,200 Ci/mmol, was reduced to 100 Ci/mmol with nonradioactive I-ABA for saturation analysis. Nonspecific binding was measured in the presence of 1 uM I-ABA. The KD and Bmax values were calculated by the EBDA program (McPherson, G. A. (1983) Computer Programs for Biomedicine 17, 107-114). Competition binding of agonists and antagonists was determined with ^125 I-ABA (0.17-2.0 nM, 2000 Ci/mmol). […] Binding data were analyzed and competition curves were constructed by use of the nonlinear regression curve fitting program Graph PAD InPlot, Version 3.0 (Graph Pad Software, San Diego).

[10] = system: myocardial ischemic injury; details: inhibitor of mast cell degranulation; cited from earlier work
[11] = 125I-ABA saturation binding, HS-21a stable CHO cell membranes

In the case of `Nc1ncnc2c1ncn2[C@@H]1O[C@H](CO)[C@@H](O)[C@H]1O` [Adenosine, adenosine], the vasoconstrictor action [1] is given as “vasoconstrictor action”, the “induction of mast cell degranulation” value [2] is given as “induce mast cell degranulation” and the bronchoconstriction [3] is given as “produces bronchoconstriction in asthmatics but not in nonasthmatics”. For the same molecule, the “inhibition of forskolin-stimulated cAMP accumulation” value ([4]; stably transfected CHO cells, human A3) was 30-40% and the “release of granule contents” value [5] was “potentiates the release of granule contents”.

In the case of `Nc1ccc(CNc2ncnc3c2ncn3[C@@H]2O[C@H](CO)[C@@H](O)[C@H]2O)cc1I` [I-ABA], the agonist affinity order [6] is given as “I-ABA>APNEA>NECA≥R-PIA>>CPA”, the “agonist character (partial agonist)” value ([4]; human A3, stably transfected CHO cells) is given as “partial agonist” and the “prevention of specific binding of 125I-ABA” value [7] is given as “prevented”.

For `Nc1ccc(CNc2ncnc3c2ncn3[C@@H]2O[C@H](CO)[C@@H](O)[C@H]2O)cc1[125I]` [^125 I-ABA, N^6-(4-amino-3^125 iodobenzyl)adenosine], the “specific binding to non-transfected cells” value [8] is listed as “No specific binding”, the “binding / affinity of ligands in words” value [6] is listed as “binds” and the Bmax [9, 11] is listed as 258 fmol/mg protein. The Hill coefficient [9, 11] was 0.99 and the “agonist activity inferred from effect of uncoupling reagents on binding” value ([9]; HS-21a in stable CHO cell line) was “exhibits some agonist activity”.

In the case of `N#Cc1cc(NC(=O)C(=O)O)c(Cl)c(NC(=O)C(=O)O)c1` [lodoxamide], the “reduction of myocardial ischemic injury” value [10] is listed as “reduces myocardial ischemic injury”.
